In US8552032B2, “Bicyclic derivatives useful as inhibitors of DPP-1” (Janssen Pharmaceutica NV, priority 2009, dated 2013):

Target: T1, recombinant human DPP-1 (Cathepsin C) (Homo sapiens, UniProt P53634)
T1 construct: made in house
Experiment: DPP-1 Inhibition Assay (in vitro), fluorogenic substrate GR-AMC
Assay type: biochemical
Conditions: 0.15 nM DPP-1, 10 uM GR-AMC, pH 7.0, room temperature; average value where tested multiple times
Description: Test compounds were assessed for DPP-1 (Cathepsin C) inhibitory activity using a fluorogenic substrate, GR-AMC (Glycine-Arginine-amino-4-methylcoumarin, Bachem, 1-1215). The amount of amino-methylcoumarin released is proportional to the DPP-1 activity, and the reaction is monitored kinetically with a Molecular Devices plate reader using black 96-well plates.
All compounds were tested under room temperature conditions. The assay buffer consisted of 50 mM HEPES, pH 7.0, 100 mM NaCl, 2 mM glutathione (GSH), and 0.002% TWEEN 20. GSH and TWEEN 20 were added to the buffer fresh daily. Just prior to use, an in-house preparation of recombinant human DPP-1 (240 μM stock, MW 49.6 kD) was diluted 600-fold in assay buffer containing fresh 2 mM dithiothreitol (DTT) to activate the enzyme, then diluted into assay buffer (without DTT) 133-fold for a DPP-1 working solution of 3 nM. Test compounds were diluted in DMSO for 20× their final assay concentrations.
Additions to a 96-well black Costar 3915 plates were as follows: 90 μL of 11 μM GR-AMC, 5 μL test compound (followed by mixing), and 5 μL 3 nM DPP1 to start the reaction. Fluorescent reactions were monitored kinetically at 360 nm excitation, 440 nm emission on a Molecular Devices Spectramax XPS reader. The Softmax Pro software of the reader determined the initial velocity of the selected data (the first 3-5 minutes of the reaction), and the best linear regression fit of the initial kinetic data. Final assay conditions were 0.15 nM DPP-1, 10 uM GR-AMC, 50 mM HEPES, pH 7.0, 100 mM NaCl, 2 mM GSH, 0.002% TWEEN 20, 1 uM DTT, 5.0% DMSO. Initial velocity rates were plotted vs. test compound concentration by use of a four-parameter logistics equation (nonlinear regression, sigmoidal dose-response (variable slope), with fixed Hill (1.0) using GraphPad Prism® software for determination of DPP-1 IC50. Within-run assay coefficient of variation (CV) was generally <10%; between-run CV <20%.
Representative compounds of the present invention were tested according to the procedure as described above, with results as listed in Table 12, below.

T1 sequence (P53634 25-463): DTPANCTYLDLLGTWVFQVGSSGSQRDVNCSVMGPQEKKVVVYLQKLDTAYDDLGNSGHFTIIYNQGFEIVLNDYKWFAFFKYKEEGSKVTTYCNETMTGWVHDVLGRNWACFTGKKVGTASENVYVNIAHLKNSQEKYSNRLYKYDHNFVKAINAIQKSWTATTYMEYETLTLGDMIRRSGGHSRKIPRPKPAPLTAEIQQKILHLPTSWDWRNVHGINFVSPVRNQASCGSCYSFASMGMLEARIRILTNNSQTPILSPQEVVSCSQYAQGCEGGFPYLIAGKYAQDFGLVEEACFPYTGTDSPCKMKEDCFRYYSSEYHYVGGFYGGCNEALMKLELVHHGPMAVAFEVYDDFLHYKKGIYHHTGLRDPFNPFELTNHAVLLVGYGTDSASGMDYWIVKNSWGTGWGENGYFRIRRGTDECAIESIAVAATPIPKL

| IC50 | SMILES |
| --- | --- |
| 2.6 µM | CC[C@H](N)C(=O)NCCCc1cc2cc(C(=O)N3CCCc4ccccc43)ccc2o1 [Compound 71] |
| 2.4 µM | CC[C@H](N)C(=O)NCCCc1cc2cc(C(=O)Nc3ccc4[nH]cnc4c3)ccc2o1 [Compound 72] |
| 1.8 µM | CC[C@H](N)C(=O)NCCCc1cc2cc(C(=O)NC3CCNc4ccccc43)ccc2o1 (stereo partly shown) [Compound 73] |
| > 10 µM | CC[C@H](N)C(=O)NCCCc1cc2cc(C(=O)O)ccc2o1 [Compound 74] |
| 1.1 µM | CC[C@H](N)C(=O)NCCCc1cc2cc(C(=O)Nc3ccc(C)cc3)ccc2[nH]1 [Compound 75] |
| 0.35 µM | CC[C@H](N)C(=O)NCCCc1cc2cc(C(=O)Nc3ccc(OC)cc3)ccc2[nH]1 [Compound 77] |
| 0.91 µM | CC[C@H](N)C(=O)NCCCc1cc2cc(C(=O)Nc3ccc(C(C)(C)C)cc3)ccc2[nH]1 [Compound 78] |
| 1.3 µM | CC[C@H](N)C(=O)NCCCc1cc2cc(C(=O)Nc3ccc(F)cc3)ccc2[nH]1 [Compound 79] |
| 0.68 µM | CC[C@H](N)C(=O)NCCCc1cc2cc(C(=O)Nc3ccc(C(C)C)cc3)ccc2[nH]1 [Compound 80] |
| 0.79 µM | CC[C@H](N)C(=O)NCCCc1cc2cc(C(=O)Nc3ccc(F)c(F)c3)ccc2[nH]1 [Compound 81] |
| 0.56 µM | CC[C@H](N)C(=O)NCCCc1cc2cc(C(=O)Nc3ccc(C)c(C)c3)ccc2[nH]1 [Compound 83] |
| 1 µM | CC[C@H](N)C(=O)NCCCc1cc2cc(C(=O)N3CCc4ccccc4C3)ccc2o1 [Compound 84] |
| 2.4 µM | CC[C@H](N)C(=O)NCCCc1cc2cc(C(=O)Nc3cccc4[nH]cnc34)ccc2o1 [Compound 85] |
| 1 µM | CC[C@H](N)C(=O)NCCCc1cc2cc(C(=O)Nc3ccc4c(c3)S(=O)(=O)C=C4)ccc2o1 [Compound 86] |
| 2.6 µM | CC[C@H](N)C(=O)NCCCc1cc2cc(C(=O)Nc3ccccc3F)ccc2[nH]1 [Compound 87] |
| 1 µM | CC[C@H](N)C(=O)NCCCc1cc2cc(C(=O)Nc3ccccc3OC)ccc2[nH]1 [Compound 88] |
| 1.2 µM | CC[C@H](N)C(=O)NCCCc1cc2cc(C(=O)Nc3ccccc3C(C)C)ccc2[nH]1 [Compound 89] |
| 0.9 µM | CC[C@H](N)C(=O)NCCCc1cc2cc(C(=O)Nc3cccc(F)c3)ccc2[nH]1 [Compound 90] |
| 0.8 µM | CC[C@H](N)C(=O)NCCCc1cc2cc(C(=O)Nc3cccc(Cl)c3)ccc2[nH]1 [Compound 91] |
| 0.35 µM | CC[C@H](N)C(=O)NCCCc1cc2cc(C(=O)Nc3cccc(OC)c3)ccc2[nH]1 [Compound 92] |
| 0.92 µM | CC[C@H](N)C(=O)NCCCc1cc2cc(C(=O)Nc3cccc(C)c3)ccc2[nH]1 [Compound 93] |
| 1.5 µM | CC[C@H](N)C(=O)NCCCc1cc2cc(C(=O)Nc3cc(OC)cc(OC)c3)ccc2o1 [Compound 94] |

| IC50 | SMILES |
| --- | --- |
| 0.43 µM | CC[C@H](N)C(=O)NCCCc1cc2cc(C(=O)Nc3c(C)cccc3C)ccc2o1 [Compound 95] |
| 0.37 µM | CC[C@H](N)C(=O)NCCCc1cc2cc(-c3cc(OC)cc(OC)c3)ccc2[nH]1 [Compound 96] |
| 0.024 µM | COc1ccc(NC(=O)c2ccc3[nH]c(CCCNC(=O)[C@@H](N)Cc4cccs4)cc3c2)cc1OC [Compound 97] |
| 0.48 µM | CC[C@H](N)C(=O)NCCCc1cc2cc(Oc3ccccc3)ccc2[nH]1 [Compound 98] |
| 0.42 µM | CC[C@H](N)C(=O)NCCCc1cc2cc(Oc3ccc(OC)c(OC)c3)ccc2[nH]1 [Compound 99, (S)-2-amino-N-(3-(5-(3,4-dimethoxyphenoxy)-1H-indol-2-yl)propyl)butanamide] |
| 0.52 µM | CC[C@H](N)C(=O)NCCCc1cc2cc(-c3ccccc3)ccc2[nH]1 [Compound 100] |
| 0.79 µM | CC[C@H](N)C(=O)NCCCc1cc2cc(-c3ccc(F)cc3)ccc2[nH]1 [Compound 101] |
| 0.71 µM | CC[C@H](N)C(=O)NCCCc1cc2cc(-c3ccc(C(F)(F)F)cc3)ccc2[nH]1 [Compound 102] |
| 0.39 µM | CC[C@H](N)C(=O)NCCCc1cc2cc(-c3cccc(C(N)=O)c3)ccc2[nH]1 [Compound 103] |
| 0.34 µM | CC[C@H](N)C(=O)NCCCc1cc2cc(-c3ccc(OC)cc3)ccc2[nH]1 [Compound 104] |
| 0.86 µM | CC[C@H](N)C(=O)NCCCc1cc2cc(-c3ccc(OC(F)(F)F)cc3)ccc2[nH]1 [Compound 105] |
| 0.082 µM | COc1ccc(NC(=O)c2ccc3[nH]c(CCCN(C)C(=O)[C@@H](N)Cc4cccs4)cc3c2)cc1OC [Compound 106, (S)-2-(3-(2-amino-N-methyl-3-(thiophen-2-yl)propanamido)propyl)-N-(3,4-dimethoxyphenyl)-1H-indole-5-carboxamide] |
| 9 µM | CC[C@H](N)C(=O)N(C)CCCc1cc2cc(C(=O)Nc3ccc(OC)c(OC)c3)ccc2[nH]1 [Compound 107] |
| 0.76 µM | CC[C@H](N)C(=O)NCCCc1cc2cc(-c3cc(C(F)(F)F)cc(C(F)(F)F)c3)ccc2[nH]1 [Compound 109] |
| 0.69 µM | CC[C@H](N)C(=O)NCCCc1cc2cc(-c3ccc(C(N)=O)cc3)ccc2[nH]1 [Compound 111] |
| 0.52 µM | CC[C@H](N)C(=O)NCCCc1cc2cc(-c3ccc4c(c3)OCO4)ccc2[nH]1 [Compound 112] |
| 0.7 µM | CC[C@H](N)C(=O)NCCCc1cc2cc(-c3cccc(S(N)(=O)=O)c3)ccc2[nH]1 [Compound 113] |
| 0.67 µM | CC[C@H](N)C(=O)NCCCc1cc2cc(-c3ccncc3)ccc2[nH]1 [Compound 114] |
| 2 µM | CC[C@H](N)C(=O)NCCCc1cc2cc(-c3ccccc3C(N)=O)ccc2[nH]1 [Compound 116] |
| 0.081 µM | COc1ccc(NC(=O)c2ccc3[nH]c(CCCNC(=O)[C@@H](N)Cc4nccs4)cc3c2)cc1OC [Compound 117, (S)-2-(3-(2-amino-3-(thiazol-2-yl)propanamido)propyl)-N-(3,4-dimethoxyphenyl)-1H-indole-5-carboxamide] |
| 0.37 µM | CCN(CCCc1cc2cc(C(=O)Nc3ccc(OC)c(OC)c3)ccc2[nH]1)C(=O)[C@@H](N)Cc1cccs1 [Compound 118] |
